Laboratory results from PubChem BioAssay (NCI).
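Method: 48-hour compound exposure of cells in 96-well plates, five concentrations, linear interpolation of endpoints. The concentration for 50% growth inhibition is given as GI50. TGI is the concentration that stops growth completely.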

Experiments:
Assay in all cases: NCI tumour cell line growth inhibition, 48 h
IGROV1 ovarian = system: IGROV1 ovarian
SW-620 colon = system: SW-620 colon
HOP-92 NSCLC = system: HOP-92 NSCLC
COLO 205 colon = system: COLO 205 colon
HCT-15 colon = system: HCT-15 colon
UACC-257 melanoma = system: UACC-257 melanoma
A549 NSCLC = system: A549 NSCLC
DU-145 prostate = system: DU-145 prostate
SF-539 CNS = system: SF-539 CNS
NCI-H23 lung = system: NCI-H23 lung

Row | SMILES | TGI (IGROV1 ovarian) [µM] | TGI (SW-620 colon) [µM] | TGI (HOP-92 NSCLC) [µM] | TGI (COLO 205 colon) [µM] | TGI (HCT-15 colon) [µM] | TGI (UACC-257 melanoma) [µM] | TGI (A549 NSCLC) [µM] | TGI (DU-145 prostate) [µM] | TGI (SF-539 CNS) [µM] | TGI (NCI-H23 lung) [µM] | GI50 (IGROV1 ovarian) [µM] | GI50 (SW-620 colon) [µM] | GI50 (HOP-92 NSCLC) [µM] | GI50 (COLO 205 colon) [µM] | GI50 (HCT-15 colon) [µM] | GI50 (UACC-257 melanoma) [µM] | GI50 (A549 NSCLC) [µM] | GI50 (DU-145 prostate) [µM] | GI50 (SF-539 CNS) [µM] | GI50 (NCI-H23 lung) [µM]
1 | CCOC(=O)C1=CN(C(=O)c2ccccc2)CCC1Cc1ccccc1 (stereo not given) | > 100 | > 100 | 54.5 | 51.9 | > 100 | 34.3 | > 100 | > 100 | 63.6 | > 100 | – | – | – | – | – | – | – | – | – | –
2 | Cc1ccc(CC(=O)Nc2ccc(NC(=O)CNC(=O)/C=C/c3ccc(-c4ccccc4)cc3)cc2C(=O)c2ccccc2)cc1 | 21.7 | 19.5 | 15.4 | 32 | 13.2 | 22.7 | 5.37 | 7.54 | 8.85 | 4.71 | – | – | – | – | – | – | – | – | – | –
3 | C=CCc1cccc2cc(C(=O)Nc3nc(C45CC6CC(CC(C6)C4)C5)cs3)c(=O)oc12 | 94.5 | > 100 | 43.1 | 58.9 | > 100 | > 100 | > 100 | > 100 | > 100 | 59.2 | – | – | – | – | – | – | – | – | – | –
4 | Cc1nc2sccn2c1C(=O)OCCOCCOCCOCCOC(=O)c1c(C)nc2sccn12 | > 100 | > 100 | > 100 | > 100 | > 100 | > 100 | > 100 | > 100 | > 100 | > 100 | – | – | – | – | – | – | – | – | – | –
5 | CSc1nc(=O)c(C#N)c(-c2ccccc2)n1C1OC(COC(C)=O)C(OC(C)=O)C(OC(C)=O)C1OC(C)=O (stereo not given) | > 100 | > 100 | > 100 | > 100 | > 100 | > 100 | > 100 | > 100 | > 100 | > 100 | – | – | – | – | – | – | – | – | – | –
6 | CN1N(c2ccccc2)C(=O)C2=NC=C(C#N)C(=N)C21C (stereo not given) | > 100 | > 100 | > 100 | > 100 | > 100 | > 100 | > 100 | > 100 | > 100 | > 100 | – | – | – | – | – | – | – | – | – | –
7 | CCCC1C(C#N)(C#N)C(C#N)=C(N)C1(C)C(C)=O (stereo not given) | > 100 | > 100 | > 100 | > 100 | > 100 | > 100 | > 100 | > 100 | > 100 | > 100 | – | – | – | – | – | – | – | – | – | –
8 | CN(/N=C/c1ccc(Cl)c(Cl)c1)C1=NCCN1 | > 100 | 54.4 | 62.6 | 38.9 | > 100 | 45.2 | > 100 | > 100 | 40.4 | > 100 | – | – | – | – | – | – | – | – | – | –
9 | CCOC(=O)c1ccc(NC(NC(=O)CC)(C(F)(F)F)C(F)(F)F)cc1 | > 100 | > 100 | > 100 | > 100 | > 100 | > 100 | > 100 | > 100 | > 100 | > 100 | – | – | – | – | – | – | – | – | – | –
10 | CN1CCN(c2c(O)c3c(c(O)c2Cl)C(=O)C=CC3=O)CC1 | 2.6 | 0.369 | 0.598 | 0.38 | 0.491 | 1.58 | 4.27 | 3.19 | 2.32 | 1.54 | – | – | – | – | – | – | – | – | – | –
11 | COc1cc([C@@H]2c3cc4c(cc3[C@@H](Nc3ccc(NC(=O)c5cc(NC(=O)c6cc([N+](=O)[O-])cn6C)cn5C)cc3)[C@H]3COC(=O)[C@H]23)OCO4)cc(OC)c1O | > 39 | > 62.5 | > 39.2 | 17.8 | > 55.2 | > 82.4 | > 49.9 | 5.22 | > 100 | > 48.7 | – | – | – | – | – | – | – | – | – | –
12 | c1ccc(-c2nc3ccccc3n3nnnc23)cc1 | > 100 | > 100 | > 100 | > 100 | > 100 | > 100 | > 100 | > 100 | > 100 | > 100 | – | – | – | – | – | – | – | – | – | –
13 | Cc1nc(N)nc(N)c1N1CCN(Cc2ccccc2)CC1 | > 100 | > 100 | > 100 | > 100 | > 100 | > 100 | > 100 | > 100 | > 100 | > 100 | – | – | – | – | – | – | – | – | – | –
14 | Cc1nc2ccccc2cc1C[N+]12CN3CN(CN(C3)C1)C2 | > 100 | > 100 | > 100 | 28.8 | 47 | 35.5 | > 100 | 82.1 | 64.5 | 33.9 | – | – | – | – | – | – | – | – | – | –
15 | Nc1ccc(-c2nc3cc(F)ccc3s2)cc1 | > 77.9 | > 100 | > 93.1 | > 100 | > 85.7 | > 100 | > 100 | > 100 | > 100 | > 46.5 | – | – | – | – | – | – | – | – | – | –
16 | COC1=CCC2=C(CCN(C(=O)C3CCC3)C2Cc2ccc(OC)c(O)c2)C1 (stereo not given) | > 100 | > 100 | 79.4 | 32.1 | 25.1 | > 100 | > 100 | 51.9 | > 100 | 28.7 | – | – | – | – | – | – | – | – | – | –
17 | COC1CCC(n2c([C@@H]3CCCC(=O)N3c3ccc(F)c(F)c3)nc3cc(-c4c(C)noc4C)ccc32)CC1 (stereo not given in full) | 25.4 | > 100 | 14.2 | 17.8 | 38.3 | > 100 | 69.5 | 54.2 | 23 | 40.5 | 4.61 | 19.1 | 2.04 | 2.16 | 4.73 | 2.54 | 11.8 | 16.8 | 9.79 | 13.3
